We go through 54 compounds from patent US6251899A, “Methoximinomethyloxadiazines” (Bayer Aktiengesellschaft, priority 1997, dated 2001).

The nature of data set [1]: logP by HPLC (EEC Directive 79/831 Annex V. A8, gradient method, acetonitrile/0.1% aqueous phosphoric acid). The format is physicochemical. On the procedure:
*The logP values were determined in accordance with EEC Directive 79/831
Annex V. A8 by HPLC (gradient method, acetonitrile/0.1% aqueous phosphoric

The next data set concerns Venturia inaequalis. As to the kind of experiment: Venturia test (apple)/protective. Conditions: 288 h.
A further data set deals with Plasmopara viticola. Put plainly: Plasmopara test (grapevine)/protective. Conditions: 144 h.
Where [2] appears, read: read-out: Efficacy, apple, protective, 10 g/ha, 12 days after inoculation.
The mark [3] stands for this setting: read-out: Efficacy, grapevine, protective, 100 g/ha, 6 days after inoculation.

Molecules are shown by their SMILES. Like-named read-outs stand apart in the source and are kept apart here.

Experimental for Plasmopara viticola: Solvent: 47 parts by weight of acetone
(§1) Emulsifier: 3 parts by weight of alkylaryl polyglycol ether
After the spray coating has dried on, the plants are inoculated with an aqueous spore suspension of Plasmopara viticola and then remain in an incubation cabin at approximately 20° C. and 100% relative atmospheric humidity for 1 day. The plants are subsequently placed in a greenhouse at approximately 21° C. and approximately 90% relative atmospheric humidity for 5 days. The plants are then moistened and placed in an incubation cabin for 1 day.
Evaluation is carried out 6 days after the inoculation.
Experimental for Venturia inaequalis: Solvent: 47 parts by weight of acetone
as §1
After the spray coating has dried on, the plants are inoculated with aqueous conidia suspension of the causative organism of apple scab Venturia inaequalis and then remain in an incubation cabin at approximately 20° C. and 100% relative atmospheric humidity for 1 day.
The plants are then placed in a greenhouse at approximately 21° C. and a relative atmospheric humidity of approximately 90%.
Evaluation is carried out 12 days after the inoculation.

What is called chromatographic logP is a lipophilicity value derived from retention on a column. Turning to `CON=C(C1=NOCCN1)c1ccccc1Oc1ncnc(Oc2cc(C)ccc2Cl)c1F` [Example 18], the chromatographic logP in data set [1] is 3.35.
Take `C=Cc1ccccc1Oc1ncnc(Oc2ccccc2C(=NOC)C2=NOCCN2)c1F` [Example 7]: the pest or weed control at 10 g/ha with Venturia inaequalis (setting [2]) is ≥ 90%. The compound also registered a chromatographic logP in data set [1] of 3.38. Besides, in the data set with Plasmopara viticola (setting [3]), the pest or weed control at 100 g/ha is ≥ 90%.
As for `CON=C(C1=NOCCN1)c1ccccc1Oc1ncnc(Sc2ccc(Cl)cc2)c1F` [Example 50], in data set [1], the chromatographic logP turned out to be 3.57. The pest or weed control at 100 g/ha in the data set on Plasmopara viticola (setting [3]) was ≥ 90%.
Consider `CON=C(C1=NOCCN1)c1ccccc1Oc1ncnc(Oc2cccc3c2OC(C)(C)C3)c1F` [Example 31], for which the pest or weed control at 10 g/ha with Venturia inaequalis (setting [2]) was ≥ 90%. For the same compound, the chromatographic logP in data set [1] was found to be 3.3.
For the compound `CON=C(C1=NOCCN1)c1ccccc1Oc1ncnc(Sc2cccc(Cl)c2)c1F` [Example 53], in data set [1], the chromatographic logP stood at 3.56. In addition, the pest or weed control at 100 g/ha in the data set on Plasmopara viticola (setting [3]) was ≥ 90%.
In turn, `CON=C(C1=NOCCN1)c1ccccc1Oc1ncnc(Oc2ccc(C)nc2)c1F` [Example 35] yielded a chromatographic logP in data set [1] of 1.58.
Consider `CON=C(C1=NOCCN1)c1ccccc1Oc1ncnc(Oc2cccc(C)c2C)c1F` [Example 4], for which the pest or weed control at 10 g/ha with Venturia inaequalis (read-out: Efficacy) is 95%; in the data set with Venturia inaequalis (setting [2]) it was ≥ 90%. The chromatographic logP in data set [1] amounted to 3.29. Besides, in the data set on Plasmopara viticola (setting [3]), the pest or weed control at 100 g/ha is ≥ 90%.
As to `CON=C(C1=NOCCN1)c1ccccc1Oc1ncnc(Oc2cccc(C)c2)c1F` [Example 20], the pest or weed control at 10 g/ha with Venturia inaequalis (setting [2]) was ≥ 90%. Also, in data set [1], the chromatographic logP was found to be 3.1. Also, the pest or weed control at 100 g/ha in the data set on Plasmopara viticola (setting [3]) is ≥ 90%.
Regarding `CON=C(C1=NOCCN1)c1ccccc1Oc1ncnc(Oc2ccc(OC(F)(F)F)cc2Cl)c1F` [Example 27], the chromatographic logP in data set [1] was found to be 3.86.
Take `CON=C(C1=NOCCN1)c1ccccc1Oc1ncnc(Oc2ccccc2Cl)c1F` [Example 3]: the pest or weed control at 10 g/ha in the data set on Venturia inaequalis (read-out: Efficacy) was 92%; with Venturia inaequalis (setting [2]), ≥ 90%. In data set [1], this compound showed a chromatographic logP of 3.02. For the same compound, the pest or weed control at 100 g/ha with Plasmopara viticola (setting [3]) was ≥ 90%.
Regarding `CON=C(C1=NOCCN1)c1ccccc1Oc1ncnc(SCc2ccccc2)c1F` [Example 58], in data set [1], the chromatographic logP is 3.42.
As to `CON=C(C1=NOCCN1)c1ccccc1Oc1ncnc(Oc2cccc(OC)c2)c1F` [Example 23], in the data set on Venturia inaequalis (setting [2]), the pest or weed control at 10 g/ha was ≥ 90%. In addition, the chromatographic logP in data set [1] was 2.8.
For `CON=C(C1=NOCCN1)c1ccccc1Oc1ncnc(Oc2ccc(C)cc2)c1F` [Example 21], in that order: ≥ 90% and 3.08.
Regarding `CON=C(C1=NOCCN1)c1ccccc1Oc1ncnc(Oc2ccc(Cl)cn2)c1F` [Example 41], the chromatographic logP in data set [1] was 2.65.
Regarding `CON=C(C1=NOCCN1)c1ccccc1Oc1ncnc(Oc2cccc(Cl)c2C)c1F` [Example 2], the pest or weed control at 10 g/ha in the data set with Venturia inaequalis (setting [2]) was ≥ 90%. In data set [1], the chromatographic logP was 3.52. In the data set on Plasmopara viticola (setting [3]), the pest or weed control at 100 g/ha is ≥ 90%.
Regarding `CON=C(C1=NOCCN1)c1ccccc1Oc1ncnc(Oc2cccc(C(C)(C)C)c2)c1F` [Example 12], the pest or weed control at 10 g/ha with Venturia inaequalis (setting [2]) is ≥ 90%. Moreover, in data set [1], the chromatographic logP amounted to 3.96.
In data set [1], `CCSc1ccccc1Oc1ncnc(Oc2ccccc2C(=NOC)C2=NOCCN2)c1F` [Example 64] displayed a chromatographic logP of 3.26.
In data set [1], `CON=C(C1=NOCCN1)c1ccccc1Oc1ncnc(Oc2cccnc2)c1F` [Example 37] returned a chromatographic logP of 1.73.
`CON=C(C1=NOCCN1)c1ccccc1Oc1ncnc(Oc2ccccc2)c1F` [Example 34]: the chromatographic logP in data set [1] was 2.76. Also, the pest or weed control at 100 g/ha with Plasmopara viticola (setting [3]) was ≥ 90%.
In the case of `COCc1ccccc1Oc1ncnc(Oc2ccccc2C(=NOC)C2=NOCCN2)c1F` [Example 61], in data set [1], the chromatographic logP is 2.74.
For `CON=C(C1=NOCCN1)c1ccccc1Oc1ncnc(Sc2ccccc2)c1F` [Example 48], the pest or weed control at 10 g/ha with Venturia inaequalis (setting [2]) is ≥ 90%. Also, the pest or weed control at 100 g/ha in the data set on Plasmopara viticola (setting [3]) was ≥ 90%.
With `CON=C(C1=NOCCN1)c1ccccc1Oc1ncnc(Sc2ccc(Br)cc2)c1F` [Example 49], the chromatographic logP in data set [1] amounted to 3.69.
Consider `CON=C(C1=NOCCN1)c1ccccc1Oc1ncnc(Oc2cccc(C(F)(F)F)c2)c1F` [Example 24], for which the pest or weed control at 10 g/ha in the data set on Venturia inaequalis (setting [2]) is ≥ 90%. Further, the chromatographic logP in data set [1] was 3.39.
Regarding `CON=C(C1=NOCCN1)c1ccccc1Oc1ncnc(Oc2cccc(Cl)c2)c1F` [Example 5], the figures for the pest or weed control at 10 g/ha in the data set with Venturia inaequalis (read-out: Efficacy) and in the data set with Venturia inaequalis (setting [2]) were 99% and ≥ 90%, respectively. In data set [1], this compound gave a chromatographic logP of 3.23. For the same compound, the pest or weed control at 100 g/ha with Plasmopara viticola (read-out: Efficacy) was 97%; in the data set on Plasmopara viticola (setting [3]) it was ≥ 90%.
In turn, `CON=C1C(=NOCCOS(C)(=O)=O)Oc2ccccc21` [VI-1, benzofuran-2,3-dione 2-[O-(2-methylsulphonyloxy-ethyl)-oxime]3-(O-methyl-oxime)] came in with a chromatographic logP in data set [1] of 2.39.
On the same count and under the same terms, to `CON=C(C1=NOCCN1)c1ccccc1Oc1ncnc(Oc2ccc(C(F)(F)F)cc2Cl)c1F` [Example 26] belongs 3.76; to `CON=C(C1=NOCCN1)c1ccccc1Oc1ncnc(Sc2ccc(Cl)c(C(F)(F)F)c2Cl)c1F` [Example 55], 4.3.
In data set [1], `CON=C(C1=NOCCN1)c1ccccc1Oc1ncnc(Sc2ccc(C)cc2)c1F` [Example 51] gave a chromatographic logP of 3.45. Besides, the pest or weed control at 100 g/ha in the data set with Plasmopara viticola (setting [3]) was ≥ 90%.
Compound `CON=C(C1=NOCCN1)c1ccccc1Oc1ncnc(OCc2cccc(Cl)c2)c1F` [Example 46] showed a chromatographic logP in data set [1] of 3.44.
In data set [1], `CON=C(C1=NOCCN1)c1ccccc1Oc1ncnc(SC2CCCCC2)c1F` [Example 57] came in with a chromatographic logP of 4.01.
In data set [1], `CCSCc1ccccc1Oc1ncnc(Oc2ccccc2C(=NOC)C2=NOCCN2)c1F` [Example 60] gave a chromatographic logP of 3.4.
For `CCOCc1ccccc1Oc1ncnc(Oc2ccccc2C(=NOC)C2=NOCCN2)c1F` [Example 62], the chromatographic logP in data set [1] stood at 3.04.
As to `CON=C(C1=NOCCN1)c1ccccc1Oc1ncnc(Oc2ccccc2C#N)c1F` [Example 29], the chromatographic logP in data set [1] is 2.56.
Turning to `CON=C(C1=NOCCN1)c1ccccc1Oc1ncnc(Oc2cccc(Cl)c2Cl)c1F` [Example 1, 3-{1-[2-(4-<2,3-dichlorophenoxy>-5-fluoropyrimid-6-yloxy)-phenyl]-1-(methoximino)-methyl}-5,6-dihydro-4H-1,2,4-oxadiazine], the chromatographic logP in data set [1] stood at 3.45. Moreover, in the data set with Plasmopara viticola (setting [3]), the pest or weed control at 100 g/ha was ≥ 90%.
In the case of `CON=C(C1=NOCCN1)c1ccccc1Oc1ncnc(Oc2cccc(Cl)n2)c1F` [Example 40], in the data set with Venturia inaequalis (setting [2]), the pest or weed control at 10 g/ha is ≥ 90%. In data set [1], this compound came in with a chromatographic logP of 2.62.
In the same order, the values of `CON=C(C1=NOCCN1)c1ccccc1Oc1ncnc(Oc2ccccc2C(C)(C)C)c1F` [Example 22] are ≥ 90% and 3.84.
`CON=C(C1=NOCCN1)c1ccccc1Oc1ncnc(Oc2ccccc2Br)c1F` [Example 9] displayed a chromatographic logP in data set [1] of 3.08. For the same compound, in the data set on Plasmopara viticola (setting [3]), the pest or weed control at 100 g/ha was ≥ 90%.
As for `CON=C(C1=NOCCN1)c1ccccc1Oc1ncnc(Oc2ccc(Cl)cc2)c1F` [Example 6], in data set [1], the chromatographic logP was 3.23. Moreover, the pest or weed control at 100 g/ha in the data set on Plasmopara viticola (read-out: Efficacy) is 97%; with Plasmopara viticola (setting [3]), ≥ 90%.
As to `CON=C(C1=NOCCN1)c1ccccc1Oc1ncnc(Oc2ccccc2OC)c1F` [Example 14], the chromatographic logP in data set [1] was 2.7. For the same compound, the pest or weed control at 100 g/ha in the data set with Plasmopara viticola (setting [3]) is ≥ 90%.
The compound `CON=C(C1=NOCCN1)c1ccccc1Oc1ncnc(Oc2ccccc2SC)c1F` [Example 63] gave a chromatographic logP in data set [1] of 2.95.
For `CON=C(C1=NOCCN1)c1ccccc1Oc1ncnc(Oc2ccc(OC(F)(F)C(F)Cl)cc2)c1F` (stereo not shown) [Example 33], the chromatographic logP in data set [1] stood at 3.56.
In the case of `CON=C(C1=NOCCN1)c1ccccc1Oc1ncnc(Oc2cc(C)ccc2C)c1F` [Example 16], in data set [1], the chromatographic logP stood at 3.35.
The compound `CON=C(C1=NOCCN1)c1ccccc1Oc1ncnc(Oc2ccc(C)cc2C)c1F` [Example 15] gave a chromatographic logP in data set [1] of 3.38. For the same compound, in the data set with Plasmopara viticola (setting [3]), the pest or weed control at 100 g/ha was ≥ 90%.
Consider `CON=C(C1=NOCCN1)c1ccccc1Oc1ncnc(Sc2cccc(Br)c2)c1F` [Example 52], for which the chromatographic logP in data set [1] is 3.66.
For orientation: logP means the decadic logarithm of the partition coefficient of the neutral form, usually between octanol and water. A lower logP goes with a more hydrophilic compound. `CON=C1C(=NOCCO)Oc2ccccc21` [benzofuran-2,3-dione 2-[O-(2-hydroxy-ethyl)-oxime] 3-(O-methyl-oxime)]: in data set [1], the chromatographic logP worked out at 1.65 and the logP came out at 1.79.
In data set [1], `CON=C(C1=NOCCN1)c1ccccc1Oc1ncnc(Oc2ccc(OC(F)(F)F)cc2)c1F` [Example 25] yielded a chromatographic logP of 3.54.
In data set [1], `CON=C(C)c1ccc(Oc2ncnc(Oc3ccccc3C(=NOC)C3=NOCCN3)c2F)c(C)c1` [Example 42] came in with a chromatographic logP of 3.56.
Regarding `CON=C(C1=NOCCN1)c1ccccc1Oc1ncnc(Oc2c(C)cccc2C)c1F` [Example 19], in data set [1], the chromatographic logP came to 3.29. The pest or weed control at 100 g/ha in the data set on Plasmopara viticola (setting [3]) was ≥ 90%.
In data set [1], `CON=C(C1=NOCCN1)c1ccccc1Oc1ncnc(Oc2ccccc2C)c1F` [Example 8] showed a chromatographic logP of 3.01.
For the compound `CON=C(C1=NOCCN1)c1ccccc1Oc1ncnc(F)c1F` [IV-1, 3-{1-[2-(4,5-difluoropyrimid-6-yloxy)-phenyl]-1-(methoximino)-methyl}-5,6-dihydro-4H-1,2,4-oxadiazine], in data set [1], the chromatographic logP stood at 1.97.
`CON=C(C1=NOCCN1)c1ccccc1Oc1ncnc(OCc2ccccc2Cl)c1F` [Example 45] yielded a chromatographic logP in data set [1] of 2.8.
The compound `CON=C(C1=NOCCN1)c1ccccc1Oc1ncnc(Oc2ccc(OC(F)(F)F)cc2C)c1F` [Example 30] showed a chromatographic logP in data set [1] of 3.8.
Regarding `CON=C(C1=NOCCN1)c1ccccc1Oc1ncnc(Oc2ccc(SC(F)(F)F)cc2)c1F` [Example 32], the chromatographic logP in data set [1] came to 3.84. This chromatographic logP and that of the compound before are within 0.2 log units of each other.
As for `CON=C(C1=NOCCN1)c1ccccc1Oc1ncnc(Oc2cccnc2Br)c1F` [Example 36], in the data set with Venturia inaequalis (setting [2]), the pest or weed control at 10 g/ha is ≥ 90%. The chromatographic logP in data set [1] was 2.43.
